# Data reported in PubChem BioAssay (NCI).
#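 96-well plates; 48 h exposure; 5 concentrations. Endpoints by linear interpolation between flanking doses. Not reached: highest tested concentration assigned. TGI denotes the concentration required for complete inhibition of growth.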
# Assays:
# Assay in all cases: NCI-60 cell line screen, 48 h
# HCT-15 colon = test system: HCT-15 colon
# NCI-H460 lung = test system: NCI-H460 lung
# SW-620 colon = test system: SW-620 colon
# OVCAR-3 ovarian = test system: OVCAR-3 ovarian
# SK-MEL-2 melanoma = test system: SK-MEL-2 melanoma
# HCC-2998 colon = test system: HCC-2998 colon
# NCI-H226 lung = test system: NCI-H226 lung
# A549 NSCLC = test system: A549 NSCLC
# TK-10 renal = test system: TK-10 renal
# MALME-3M melanoma = test system: MALME-3M melanoma
# DU-145 prostate = test system: DU-145 prostate
# HL-60(TB) leukemia = test system: HL-60(TB) leukemia
# HOP-92 NSCLC = test system: HOP-92 NSCLC
# RPMI-8226 leukemia = test system: RPMI-8226 leukemia
# MDA-MB-231 breast = test system: MDA-MB-231 breast
# SR leukemia = test system: SR leukemia
# OVCAR-8 ovarian = test system: OVCAR-8 ovarian
# NCI/ADR-RES ovarian = test system: NCI/ADR-RES ovarian
# HT29 colon = test system: HT29 colon
# IGROV1 ovarian = test system: IGROV1 ovarian
# OVCAR-5 ovarian = test system: OVCAR-5 ovarian
# SNB-75 CNS = test system: SNB-75 CNS
# NCI-H522 lung = test system: NCI-H522 lung
# SN12C renal = test system: SN12C renal
# COLO 205 colon = test system: COLO 205 colon
# SF-539 CNS = test system: SF-539 CNS
# UO-31 renal = test system: UO-31 renal
# T-47D breast = test system: T-47D breast
# A498 renal = test system: A498 renal
# U251 CNS = test system: U251 CNS
# 786-0 renal = test system: 786-0 renal
# M14 melanoma = test system: M14 melanoma
# SNB-19 CNS = test system: SNB-19 CNS
# RXF 393 renal = test system: RXF 393 renal
# HS 578T breast = test system: HS 578T breast
# UACC-62 melanoma = test system: UACC-62 melanoma
# CAKI-1 renal = test system: CAKI-1 renal
# BT-549 breast = test system: BT-549 breast
# MDA-MB-435 = test system: MDA-MB-435
# SK-OV-3 ovarian = test system: SK-OV-3 ovarian
# PC-3 prostate = test system: PC-3 prostate
# SF-295 CNS = test system: SF-295 CNS
# NCI-H23 lung = test system: NCI-H23 lung
# HCT-116 colon = test system: HCT-116 colon
# SK-MEL-28 melanoma = test system: SK-MEL-28 melanoma
# OVCAR-4 ovarian = test system: OVCAR-4 ovarian
# SK-MEL-5 melanoma = test system: SK-MEL-5 melanoma
# SF-268 CNS = test system: SF-268 CNS
# MDA-N = test system: MDA-N
# HOP-62 NSCLC = test system: HOP-62 NSCLC
# MCF7 breast = test system: MCF7 breast
# EKVX NSCLC = test system: EKVX NSCLC
# MOLT-4 leukemia = test system: MOLT-4 leukemia
# ACHN renal = test system: ACHN renal
# UACC-257 melanoma = test system: UACC-257 melanoma
# KM12 colon = test system: KM12 colon
# CCRF-CEM leukemia = test system: CCRF-CEM leukemia
# LOX IMVI melanoma = test system: LOX IMVI melanoma
# K-562 leukemia = test system: K-562 leukemia
compound,measurement,setting,value
COc1cc(OC)c2nc3occc3c(OC)c2c1,TGI,HCT-15 colon,> 100 µM
same,TGI,NCI-H460 lung,> 100 µM
same,TGI,SW-620 colon,> 100 µM
same,TGI,OVCAR-3 ovarian,> 100 µM
same,TGI,SK-MEL-2 melanoma,> 100 µM
same,TGI,HCC-2998 colon,> 100 µM
same,TGI,NCI-H226 lung,> 100 µM
same,TGI,A549 NSCLC,> 100 µM
same,TGI,TK-10 renal,> 100 µM
same,TGI,MALME-3M melanoma,> 100 µM
same,TGI,DU-145 prostate,> 100 µM
same,TGI,HL-60(TB) leukemia,> 100 µM
same,TGI,HOP-92 NSCLC,> 100 µM
same,TGI,RPMI-8226 leukemia,> 100 µM
same,TGI,MDA-MB-231 breast,> 100 µM
same,TGI,SR leukemia,> 100 µM
same,TGI,OVCAR-8 ovarian,> 100 µM
same,TGI,NCI/ADR-RES ovarian,> 100 µM
same,TGI,HT29 colon,> 100 µM
same,TGI,IGROV1 ovarian,> 100 µM
same,TGI,OVCAR-5 ovarian,> 100 µM
same,TGI,SNB-75 CNS,> 100 µM
same,TGI,NCI-H522 lung,> 100 µM
same,TGI,SN12C renal,> 100 µM
same,TGI,COLO 205 colon,> 100 µM
same,TGI,SF-539 CNS,> 100 µM
same,TGI,UO-31 renal,> 100 µM
same,TGI,T-47D breast,> 100 µM
same,TGI,A498 renal,> 100 µM
same,TGI,U251 CNS,> 100 µM
same,TGI,786-0 renal,> 100 µM
same,TGI,M14 melanoma,> 100 µM
same,TGI,SNB-19 CNS,> 100 µM
same,TGI,RXF 393 renal,> 100 µM
same,TGI,HS 578T breast,> 100 µM
same,TGI,UACC-62 melanoma,> 100 µM
same,TGI,CAKI-1 renal,> 100 µM
same,TGI,BT-549 breast,> 100 µM
same,TGI,MDA-MB-435,> 100 µM
same,TGI,SK-OV-3 ovarian,> 100 µM
same,TGI,PC-3 prostate,> 100 µM
same,TGI,SF-295 CNS,> 100 µM
same,TGI,NCI-H23 lung,> 100 µM
same,TGI,HCT-116 colon,> 100 µM
same,TGI,SK-MEL-28 melanoma,> 100 µM
same,TGI,OVCAR-4 ovarian,> 100 µM
same,TGI,SK-MEL-5 melanoma,> 100 µM
same,TGI,SF-268 CNS,> 100 µM
same,TGI,MDA-N,> 100 µM
same,TGI,HOP-62 NSCLC,> 100 µM
same,TGI,MCF7 breast,> 100 µM
same,TGI,EKVX NSCLC,> 100 µM
same,TGI,MOLT-4 leukemia,> 100 µM
same,TGI,ACHN renal,> 100 µM
same,TGI,UACC-257 melanoma,> 100 µM
same,TGI,KM12 colon,> 100 µM
same,TGI,CCRF-CEM leukemia,> 100 µM
same,TGI,LOX IMVI melanoma,> 100 µM
O=P1(N(CCCl)CCCl)Oc2ccc(Cl)cc2Sc2c(ccc(Cl)c2Cl)O1 (centres undefined),TGI,HCT-15 colon,> 100 µM
same,TGI,NCI-H460 lung,33.7 µM
same,TGI,SW-620 colon,> 100 µM
same,TGI,OVCAR-3 ovarian,> 100 µM
same,TGI,SK-MEL-2 melanoma,80.3 µM
same,TGI,HCC-2998 colon,> 100 µM
same,TGI,NCI-H226 lung,95 µM
same,TGI,A549 NSCLC,77.1 µM
same,TGI,TK-10 renal,> 100 µM
same,TGI,DU-145 prostate,> 100 µM
same,TGI,HL-60(TB) leukemia,> 100 µM
same,TGI,HOP-92 NSCLC,34.4 µM
same,TGI,RPMI-8226 leukemia,> 100 µM
same,TGI,MDA-MB-231 breast,> 100 µM
same,TGI,SR leukemia,> 100 µM
same,TGI,OVCAR-8 ovarian,> 100 µM
same,TGI,NCI/ADR-RES ovarian,> 100 µM
same,TGI,HT29 colon,> 100 µM
same,TGI,OVCAR-5 ovarian,> 100 µM
same,TGI,SNB-75 CNS,67.3 µM
same,TGI,NCI-H522 lung,> 100 µM
same,TGI,SN12C renal,> 100 µM
same,TGI,COLO 205 colon,23 µM
same,TGI,SF-539 CNS,> 100 µM
same,TGI,UO-31 renal,> 100 µM
same,TGI,T-47D breast,> 100 µM
same,TGI,K-562 leukemia,> 100 µM
same,TGI,A498 renal,> 100 µM
same,TGI,U251 CNS,> 100 µM
same,TGI,786-0 renal,> 100 µM
same,TGI,M14 melanoma,> 100 µM
same,TGI,RXF 393 renal,43.9 µM
same,TGI,HS 578T breast,33.6 µM
same,TGI,UACC-62 melanoma,> 100 µM
same,TGI,CAKI-1 renal,> 100 µM
same,TGI,BT-549 breast,> 100 µM
same,TGI,MDA-MB-435,> 100 µM
same,TGI,SK-OV-3 ovarian,> 100 µM
same,TGI,PC-3 prostate,> 100 µM
same,TGI,SF-295 CNS,> 100 µM
same,TGI,NCI-H23 lung,> 100 µM
same,TGI,HCT-116 colon,74.6 µM
same,TGI,SK-MEL-28 melanoma,> 100 µM
same,TGI,OVCAR-4 ovarian,> 100 µM
same,TGI,SK-MEL-5 melanoma,21.5 µM
same,TGI,SF-268 CNS,> 100 µM
same,TGI,MDA-N,> 100 µM
same,TGI,HOP-62 NSCLC,> 100 µM
same,TGI,MCF7 breast,> 100 µM
same,TGI,EKVX NSCLC,> 100 µM
same,TGI,MOLT-4 leukemia,> 100 µM
same,TGI,ACHN renal,> 100 µM
same,TGI,UACC-257 melanoma,> 100 µM
same,TGI,KM12 colon,> 100 µM
same,TGI,CCRF-CEM leukemia,> 100 µM
same,TGI,LOX IMVI melanoma,> 100 µM
